Source: patent publication US6046018A, “Highly sensitive method for assaying chiro-inositol and compositions for the assay” (priority 1997, dated 2000)
Where “and” joins values, the source holds several entries; their conditions need not be identical. Equal entries are not always repeated.

Experiments:
[1] = system: crude enzyme which catalyses chiroinositol, S. r. 301 origin; assay: Relative activities using various coenzymes (Table 2); type: biochemical, Streptomyces roseogriseus 301; conditions: activity using NAD is set as 100%
From the text: (§1) The same as in the enzyme originated from Bacillus sp. No. 3.
(§2) The same as in the enzyme originated from Bacillus sp. No. 3. Relative activities using various coenzymes are shown in Table 2 (activity using NAD is set as 100%).

[2] = system: crude enzyme which catalyses chiroinositol, A. r. 1215 origin; assay: as above; type: biochemical, Agrobacterium rhizogenes 1215; conditions: activity using NAD is set as 100%
From the text: as §1, §2

[3] = system: dehydrogenase which catalyses chiroinositol (Bacillus sp. No. 3 origin); assay: Initial rate of enzyme reaction with various coenzymes; type: biochemical; conditions: 10 mM D-chiroinositol, 1 mM coenzyme; for Initial rate of enzyme reaction: 37° C., at optimum pH; for Optimum pH for the coenzyme: 100 mM Gly-NaOH buffer
Protocol: 100 mM Gly-NaOH buffer approx. pH 10 (at optimum pH)
10 mM D-chiroinositol (Wako Pure Chemicals Inc., Japan)
1 mM Coenzyme (NAD(P), thio-NAD(P); Oriental Yeast
Optimum pH are pH 11.0 for NAD, deamino NAD and thio-NAD, pH 10.5 for acetyl NAD, and pH 10.0 for aldehyde NAD and NADP.
The above reaction solution 1 ml in quartz cell is set in spectrophotometer which is controlled at 37° C. After over 5 minutes incubation, enzyme solution 140 U/ml (NAD and deamino NAD; 14 U/ml) 20 μl is added and stirred. Absorption changes per minute in specific wavelength for each reduced coenzyme is measured to obtain initial reaction rate. (For NAD and deamino NAD, measured value is increased number by ten for adjusting the amount of enzyme.)

[4] = system: dehydrogenase which catalyses chiroinositol (Bacillus sp. No. 3 origin); assay: Substrate specificity (Table 1); type: biochemical; conditions: equal concentration of substrates; glycine-NaOH pH 9.8, thio-NAD/NADH cycling
Protocol: Substrate specificity is assayed by using following reaction solution at the equal concentration of substrates.
200 mM glycine-NaOH buffer (pH 9.8)
0.03 mM NADH (Oriental Yeast Corp., Japan)
100 U/ml dehydrogenase which catalyses chiroinosiol
2 Mm thio-NAD (Oriental Yeast Corp., Japan)
D-chiroinositol, galactose, fructose, mannitol, mannose; Japan, Wako Pure Chemicals Inc., myo-, epi-, scyllo-inositol U.S.A. SIGMA Corp.

[5] = system: crude enzyme which catalyses chiroinositol, A. r. 1215 origin; assay: Substrate specificity (Table 3); type: biochemical, Agrobacterium rhizogenes 1215; conditions: coenzyme replaced by thio-NADP
From the text: (§3) In A. r. 1215 origin, the same assay method used in Bacillus sp. No. 3 is applied by replacing coenzyme to thio-NADP. In S. r. 301 origin, the reaction solution used for enzyme assay is used by replacing D-chiroinositol for various concentrations of substrates with adding constant concentration of enzyme solution to assay relative activities.

[6] = system: crude enzyme which catalyses chiroinositol, S. r. 301 origin; assay: Substrate specificity (Table 3); type: biochemical, Streptomyces roseogriseus 301; design: concentration or dose not given beside the values; conditions: enzyme assay reaction solution, D-chiroinositol replaced by substrates
From the text: as §3

[7] = system: dehydrogenase which catalyses chiroinositol (Bacillus sp. No. 3 origin); assay: Km value; type: biochemical
Protocol: 100 mM glycine-NaOH buffer (pH 11.0)
1 mM NAD (Oriental Yeast Corp., Japan)
10 mM D-chiroinosiol (Wako Pure Chemicals Inc., Japan)
The above reaction solution 1 ml in quartz cell is set in spectrophotometer which is (controlled at 37° C. After over 5 minutes incubation, aliquot diluted enzyme solution 20 μl is added and stirred. Absorption changes per minute at A340 are measured to obtain initial reaction rate and to calculate relative activity.
Km values are measured at various concentrations using 10 mM
D-chiroinositol and mM NAD.
Km for thio-NAD is measured by replacing NAD to thio-NAD.

[8] = system: dehydrogenase which catalyses chiroinositol (Bacillus sp. No. 3 origin); assay: Initial rate of enzyme reaction with various coenzymes; type: biochemical; conditions: thio-NAD forward reaction, NADH reverse reaction
[9] = system: crude enzyme which catalyses chiroinositol, S. r. 301 origin; assay: Km value for D-chiroinositol; type: biochemical, Streptomyces roseogriseus 301
Protocol: (§4) Km value for D-chiroinositol is shown. Measurement is performed by changing substrate concentration in the above assay method.

[10] = system: crude enzyme which catalyses chiroinositol, A. r. 1215 origin; assay: Km value for D-chiroinositol; type: biochemical, Agrobacterium rhizogenes 1215
Protocol: as §4

[11] = NAD and deamino NAD values increased by ten for enzyme amount

CC(=O)c1ccc[n+]([C@@H]2O[C@H](COP(=O)([O-])OP(=O)(O)OC[C@H]3O[C@@H](n4cnc5c(N)ncnc54)[C@H](O)[C@@H]3O)[C@@H](O)[C@H]2O)c1 [acetyl NAD, acetylpyridine adenine dinucleotide]
Relative activity, S.r.301 origin [1]: 195% | Relative activity, A.r.1215 origin [2]: 26% | Initial rate of enzyme reaction [3]: 260 mAbs/min. | Optimum pH for the coenzyme [3]: 10.5 pH

OC[C@@H](O)[C@@H](O)[C@H](O)[C@H](O)CO [mannitol]
Relative activity [4]: 0% | Relative activity, A.r.1215 origin [5]: 0% | Relative activity, S.r.301 origin [6]: 0%

NC(=O)c1ccc[n+]([C@@H]2O[C@H](COP(=O)([O-])OP(=O)(O)OC[C@H]3O[C@@H](n4cnc5c(N)ncnc54)[C@H](OP(=O)(O)O)[C@@H]3O)[C@@H](O)[C@H]2O)c1 [NADP]
Relative activity, S.r.301 origin [1]: 0% | Relative activity, A.r.1215 origin [2]: 1855% | Initial rate of enzyme reaction [3]: 80 mAbs/min. | Optimum pH for the coenzyme [3]: 10.0 pH

O=C(CO)[C@@H](O)[C@H](O)[C@H](O)CO [fructose]
Relative activity [4]: 0% | Relative activity, A.r.1215 origin [5]: 0% | Relative activity, S.r.301 origin [6]: 0%

Nc1ncnc2c1ncn2[C@@H]1O[C@H](COP(=O)(O)OP(=O)([O-])OC[C@H]2O[C@@H]([n+]3cccc(C=O)c3)[C@H](O)[C@@H]2O)[C@@H](O)[C@H]1O [aldehyde NAD, pyridine aldehyde adenine dinucleotide]
Relative activity, S.r.301 origin [1]: 20% | Relative activity, A.r.1215 origin [2]: 15% | Initial rate of enzyme reaction [3]: 140 mAbs/min. | Optimum pH for the coenzyme [3]: 10.0 pH

NC(=S)c1ccc[n+]([C@@H]2O[C@H](COP(=O)([O-])OP(=O)(O)OC[C@H]3O[C@@H](n4cnc5c(N)ncnc54)[C@H](OP(=O)(O)O)[C@@H]3O)[C@@H](O)[C@H]2O)c1 [thio-NADP]
Relative activity, S.r.301 origin [1]: 0% | Relative activity, A.r.1215 origin [2]: 269%

O[C@H]1[C@H](O)[C@@H](O)[C@H](O)[C@@H](O)[C@H]1O [myoinositol]
Relative activity [4]: 9% | Relative activity, A.r.1215 origin [5]: 33% | Relative activity, S.r.301 origin [6]: 0%

NC(=S)c1ccc[n+]([C@@H]2O[C@H](COP(=O)([O-])OP(=O)(O)OC[C@H]3O[C@@H](n4cnc5c(N)ncnc54)[C@H](O)[C@@H]3O)[C@@H](O)[C@H]2O)c1 [thio-NAD, thio-nicotinamide adenine dinucleotide]
Relative activity, S.r.301 origin [1]: 6% | Km ([7]; NAD replaced by thio-NAD): 0.9 mM and 0.87 mM | Relative activity, A.r.1215 origin [2]: 0% | Optimum pH of reaction in the cycling reaction [8]: ~10.5 pH | Initial rate of enzyme reaction [3, 11]: 2.5 Abs/min. | Optimum pH for the coenzyme [3]: 11.0 pH

O[C@H]1[C@@H](O)[C@@H](O)[C@@H](O)[C@@H](O)[C@@H]1O [epi-inositol]
Relative activity [4]: 0% | Relative activity, A.r.1215 origin [5]: 0% | Relative activity, S.r.301 origin [6]: 4%

NC(=O)c1ccc[n+]([C@@H]2O[C@H](COP(=O)([O-])OP(=O)(O)OC[C@H]3O[C@@H](n4cnc5c(N)ncnc54)[C@H](O)[C@@H]3O)[C@@H](O)[C@H]2O)c1 [NAD, nicotinamide adenine dinucleotide]
Relative activity, S.r.301 origin [1]: 100% | Km ([7]; coenzyme NAD): 0.5 ± 0.1 mM | Relative activity, A.r.1215 origin [2]: 190% | Initial rate of enzyme reaction [3, 11]: 13 Abs/min. | Optimum pH for the coenzyme [3]: 11.0 pH

O[C@H]1[C@H](O)[C@H](O)[C@@H](O)[C@H](O)[C@H]1O [D-chiroinositol]
Relative activity [4]: 100% | Km [9]: 27.6 ± 1 mM | Km ([7]; NAD replaced by thio-NAD): 12.8 ± 0.5 mM | Km ([7]; coenzyme NAD): 5.2 ± 0.5 mM | Relative activity, A.r.1215 origin [5]: 100% | Relative activity, S.r.301 origin [6]: 100% | Km [10]: 30.6 ± 1 mM

mannose
Relative activity [4]: 0% | Relative activity, A.r.1215 origin [5]: 10% | Relative activity, S.r.301 origin [6]: 0%

NC(=O)c1ccc[n+]([C@@H]2O[C@H](COP(=O)([O-])OP(=O)(O)OC[C@H]3O[C@@H](n4cnc5c(=O)[nH]cnc54)[C@H](O)[C@@H]3O)[C@@H](O)[C@H]2O)c1 [deamino NAD, nicotinamide hypoxanthine dinucleotide]
Relative activity, S.r.301 origin [1]: 110% | Relative activity, A.r.1215 origin [2]: 44% | Initial rate of enzyme reaction [3, 11]: 12 Abs/min. | Optimum pH for the coenzyme [3]: 11.0 pH

O[C@H]1[C@H](O)[C@@H](O)[C@H](O)[C@@H](O)[C@@H]1O [scylloinositol]
Relative activity [4]: 0% | Relative activity, A.r.1215 origin [5]: 0% | Relative activity, S.r.301 origin [6]: 0%

NC(=O)C1=CN([C@@H]2O[C@H](COP(=O)(O)OP(=O)(O)OC[C@H]3O[C@@H](n4cnc5c(N)ncnc54)[C@H](O)[C@@H]3O)[C@@H](O)[C@H]2O)C=CC1 [NADH]
Optimum pH of reaction in the cycling reaction [8]: ~10.0 pH

galactose
Relative activity [4]: 0%
